Measured values taken from BindingDB's records for doi:10.1021/np2005083 (National Cancer Institute-Frederick, 2011).

Target: Transcription factor Jun (Homo sapiens, UniProt P05412)
Test: Inhibition of AP1 expressed in HEK293T cells coexpressing beta-lactamase pre-incubated 1 hr before TPA addition measured 18 hrs post TPA challenge by fluorimetric assay

Transcription factor Jun, sequence (P05412 whole entry): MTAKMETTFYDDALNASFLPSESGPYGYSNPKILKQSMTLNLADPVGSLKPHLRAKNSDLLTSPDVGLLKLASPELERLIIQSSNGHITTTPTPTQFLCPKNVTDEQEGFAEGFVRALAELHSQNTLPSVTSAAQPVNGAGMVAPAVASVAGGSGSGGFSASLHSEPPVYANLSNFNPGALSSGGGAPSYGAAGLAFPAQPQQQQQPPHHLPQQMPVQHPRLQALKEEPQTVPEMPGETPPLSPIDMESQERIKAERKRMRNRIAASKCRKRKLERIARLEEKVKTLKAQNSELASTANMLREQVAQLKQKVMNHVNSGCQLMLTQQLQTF

Row | Compound | IC50 [µM]
1 | CC[C@H]1NC(=O)[C@@H]2CSC(=N2)[C@@H](Cc2ccccc2)N(C)C(=O)[C@@H]2CCCN2C(=O)[C@H](C(C)C)N(C)C(=O)[C@H](Cc2ccccc2)OC(=O)[C@H](C)[C@@H](C)NC(=O)[C@@H](C(C)C)NC(=O)[C@@H](Cc2ccccc2)N(C)C(=O)[C@@H]2CSC1=N2 | 5.2
2 | CC(C)[C@H]1C(=O)N2CCC[C@H]2C(=O)N(C)[C@H](Cc2ccccc2)C2=N[C@@H](CS2)C(=O)N[C@H](C)C2=N[C@@H](CS2)C(=O)N(C)[C@H](Cc2ccccc2)C(=O)N[C@H](C(C)C)C(=O)N[C@H](C)[C@@H](C)C(=O)O[C@@H](Cc2ccccc2)C(=O)N1C | 6
